Where “and” joins values, the source holds several entries; their conditions need not be identical. Identical values can stand only once.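 Each compound was tested at five concentrations against cells in 96-well plates for 48 hours. GI50 = concentration required for 50% inhibition of growth. TGI denotes the concentration required for complete inhibition of growth.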 Where a SMILES comes first, the peptide text is derived from it. [ ]: non-standard residue; d: D form. Phe(F5) = N[CH](Cc1c(F)c(F)c(F)c(F)c1F)C(=O)O
Columns and labels:
Test in all cases: NCI anticancer screen, dose series, 48 h
[1] = tested on: 786-0 renal
[2] = tested on: A549 NSCLC
[3] = tested on: HCT-116 colon
[4] = tested on: HOP-62 NSCLC
[5] = tested on: HS 578T breast
[6] = tested on: NCI-H460 lung
[7] = tested on: SF-268 CNS
[8] = tested on: SK-MEL-28 melanoma
[9] = tested on: SN12C renal
[10] = tested on: SW-620 colon

Structure (SMILES)	GI50 [1]	TGI [1]	GI50 [2]	TGI [2]	GI50 [3]	TGI [3]	GI50 [4]	TGI [4]	GI50 [5]	TGI [5]	GI50 [6]	TGI [6]	GI50 [7]	TGI [7]	GI50 [8]	TGI [8]	GI50 [9]	TGI [9]	GI50 [10]	TGI [10]
C=C(C)[C@@H]1CC[C@]2(C(=O)NCCCN)CC[C@]3(C)[C@H](CC[C@@H]4[C@@]5(C)CC[C@H](O)C(C)(C)[C@@H]5CC[C@]43C)[C@@H]12	23.2 µM	63.4 µM	19.6 µM	66.5 µM	13.9 µM	62.4 µM	18.3 µM	88.4 µM	40.5 µM	> 100 µM	14 µM	> 100 µM	23 µM	63.8 µM	22.1 µM	57.8 µM	20.8 µM	82.6 µM	22.5 µM	> 100 µM
COc1cccc(C2=C(c3cn(C)c4ccccc34)C(=O)NC2=O)c1	13.4 µM	> 25 µM	10.8 µM	> 25 µM	7.26 µM	> 25 µM	> 22.8 µM	> 25 µM	4.8 µM	> 25 µM	13.7 µM	> 25 µM	16.3 µM	> 25 µM	> 21.7 µM	> 25 µM	12.5 µM	> 25 µM	9.13 µM	> 25 µM
COc1ccc(Cn2nc(-c3cc(OC)c(OC)c(OC)c3)c3c2CCc2cnoc2-3)cc1OC	6.34 µM	> 100 µM	6.27 µM	> 100 µM	3.63 µM	44 µM	6.35 µM	82.7 µM	2.22 µM	15.2 µM	3.28 µM	> 100 µM	5.41 µM	> 100 µM	10.3 µM	> 100 µM	5.25 µM	> 100 µM	3.98 µM	> 100 µM
CCn1c(-c2nonc2N)nc2cncc(C(=O)N3CCNCC3)c21	> 25 µM	> 25 µM	> 25 µM	> 25 µM	> 25 µM	> 25 µM	> 25 µM	> 25 µM	> 25 µM	> 25 µM	> 25 µM	> 25 µM	> 25 µM	> 25 µM	> 25 µM	> 25 µM	> 25 µM	> 25 µM	> 25 µM	> 25 µM
O=C(Nc1cccc(Cl)c1)Nc1ncc(CCNc2ncnc3ccsc23)s1	7.55 µM and 6.41 µM	41.1 µM and > 10 µM	0.748 µM and 0.493 µM	16.1 µM and > 10 µM	1.6 µM and 2.35 µM	16.1 µM and > 10 µM	2.37 µM and 1.41 µM	15.3 µM and > 10 µM	2.92 µM and 0.64 µM	39.7 µM and > 10 µM	0.114 µM and 0.991 µM	> 72.2 µM	5.85 µM and 2.75 µM	29.6 µM and > 10 µM	3.85 µM and 2.42 µM	17.4 µM and > 10 µM	3.91 µM and 3.82 µM	18.6 µM and > 10 µM	14.5 µM and > 10 µM	65.3 µM and > 10 µM
Fc1ccc2[nH]cc(Cc3c[nH]c4ccc(F)cc34)c2c1	17.1 µM	35.6 µM	17.3 µM	50.9 µM	17.8 µM	43.3 µM	19.6 µM	40.9 µM	18.5 µM	44.5 µM	25.3 µM	> 100 µM	17.5 µM	77.6 µM	25.3 µM	76.7 µM	21.6 µM	51.4 µM	23.7 µM	58.8 µM
O=c1cc(CNc2cc(F)cc(F)c2)c2ccc(I)cc2[nH]1	1.05 µM	> 100 µM	0.707 µM	> 100 µM	0.492 µM	> 100 µM	1.98 µM	> 100 µM	0.41 µM	> 100 µM	0.427 µM	> 100 µM		> 100 µM	> 67.3 µM	> 100 µM	0.798 µM	> 100 µM	0.384 µM	> 100 µM
COc1cc2nc(Cl)nc(Nc3cccc(C(=O)/C=C/c4ccccc4)c3)c2cc1OC	3.05 µM	15 µM	> 38.7 µM	> 100 µM	1.62 µM	5.16 µM	3.71 µM	31.7 µM	4.19 µM	> 64.1 µM	4.2 µM	> 100 µM	4.99 µM	81.4 µM	5.03 µM	> 100 µM	3.98 µM	41.1 µM	2.79 µM	> 100 µM
C=C(C)[C@@H]1CC=C(CO)CC1	> 10 µM	> 10 µM and 943 µM	> 10 µM	> 10 µM and 755 µM	> 10 µM	> 10 µM and 627 µM	> 10 µM	> 10 µM and 961 µM		> 10 µM	> 10 µM	> 10 µM and 1260 µM	> 10 µM	> 10 µM and 709 µM	> 10 µM	> 10 µM and 829 µM	> 10 µM	> 10 µM and 1220 µM		1340 µM
O=C1C(Cl)=C(N/N=c2/[nH][nH]/c(=N/NC3=C(Cl)C(=O)c4ccccc4C3=O)c3ccccc23)C(=O)c2ccccc21	17.4 µM	32.3 µM	21.9 µM	52.2 µM	14.3 µM	32.3 µM	10.2 µM	23.2 µM	13.5 µM	66.3 µM	19.7 µM	49.5 µM	12.2 µM	29.9 µM	19.5 µM	39 µM	15 µM	29.5 µM	16.6 µM	43.3 µM
COC(=O)C(CC(C)C)NC(=O)C(Cc1cnc[nH]1)NC(=O)CNC(=O)C(NC(=O)C(C)NC(=O)C(Cc1c[nH]c2ccccc12)NC(=O)C(CCC(=O)O)NC(=O)C(N)Cc1c(F)c(F)c(F)c(F)c1F)C(C)C (stereo not given) (H-[Phe(F5)]EWAVGHL-OMe; configuration not given here)	> 100 µM	> 100 µM	> 100 µM	> 100 µM	> 100 µM	> 100 µM	> 100 µM	> 100 µM		> 12.5 µM	> 100 µM	> 100 µM		> 12.5 µM	> 100 µM	> 100 µM	> 100 µM	> 100 µM	> 100 µM	> 100 µM
N=C(N)c1nn(C2OC(CO)C(O)C2O)c2nc[nH]c(=O)c12 (stereo not given)	0.642 µM	4.61 µM	0.659 µM	13.4 µM	0.347 µM	1.29 µM	0.3 µM	1.14 µM	0.376 µM	2.27 µM	0.487 µM	9.09 µM	0.445 µM	3.04 µM	0.336 µM	1.55 µM	0.315 µM	2.37 µM	0.53 µM	3.28 µM

Source: PubChem BioAssay (NCI)
